pIC50: −log10 of the molar value.
Legend:
[1] = system: basophil cells (human peripheral blood); assay: Basophil anti-IgE activation: histamine release assay; type: cell-based; conditions: basophils, anti-IgE activation, histamine release; read-out: Basophils anti-IgE Histamine IC50
Procedure: (§1) The basophil activation assay was carried out using whole human peripheral blood from donors allergic to dust mites with the majority of the red blood cells removed by dextran sedimentation. Human peripheral blood was mixed 1:1 with 3% dextran T500 and RBCs were allowed to settle for 20-25min. The upper fraction was diluted with 3 volumes of D-PBS and cells were spun down for 10 min at 1500 rpm, RT. Supernatant was aspirated and cells were washed in an equal volume MT-buffer. Finally, cells were resuspended in MT-buffer containing 0.5% DMSO in the original blood volume. 80 uL cells were mixed with 20 uL compound in the presence of 0.5% DMSO, in triplicate, in a V-bottom 96-well tissue culture plate. A dose range of 8 compound concentrations was tested resulting in a 10-point dose response curve including maximum (stimulated) and minimum (unstimulated) response. […] The cells were stimulated for 30 minutes at 37° C., 5% CO2. The plate was spun for 10 min at 1500 rpm at room temperature and 80 uL the supernatant was harvested for histamine content analysis using the histamine ELISA kit supplied by Immunotech. The ELISA was performed according to supplier's instructions.

[2] = system: cultured human mast cells (CHMC); assay: CHMC high cell density IgE activation: histamine; type: cell-based
Method in brief: (§2)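 IgE-sensitized CHMC at 1-2 ×10^6 cells/ml were preincubated with compound (0.5% DMSO) for 1 h at 37 °C, then stimulated with anti-IgE for 1 h before supernatant collection. Pellets were reincubated with compound for 7 h at 37 °C, and mediators were measured by ELISA on diluted supernatants.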

[3] = system: cultured human mast cells (CHMC); assay: CHMC high cell density IgE activation: hexos; type: cell-based
[4] = system: cultured human mast cells (CHMC); assay: CHMC low cell density ionomycin activation: tryptase assay; type: cell-based
[5] = system: Human Jurkat T-cells (clone N); assay: Jurkat T-cell activation (anti-TCR, CD69 upregulation); type: cell-based
Method in brief: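 Jurkat cells in RPMI + 5% FBS preincubated with compound 1 h at 37 °C, then stimulated with anti-TCR C305 at 500 ng/ml for 20 h. CD69 surface expression stained with anti-CD69-APC and read by flow cytometry; IC50 versus solvent-only control.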

[6] = system: cultured human mast cells (CHMC); assay: CHMC high cell density IgE activation: tryptase; type: cell-based
[7] = system: cultured human mast cells (CHMC); assay: CHMC low cell density IgE activation: tryptase assay; type: cell-based
Method in brief: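 Cells pelleted, taken up in warm MT, plated at 1000-1500/well, held 1 hr 37° C. Anti-IgE added, 30 min 37° C. Plates spun; supernatant mixed with tryptase substrate, 30 min RT.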

[8] = system: cultured human mast cells (CHMC); assay: CHMC high cell density IgE activation: IL-13; type: cell-based
Procedure: After sensitizing, cells are counted, pelleted (1000 rpm, 5-10 minutes), and resuspended at 1-2 ×10^6 cells/ml in MT buffer. Add 100 ul of cell suspension to each well and 100 ul of compound dilutions. The final vehicle concentration is 0.5% DMSO. Incubate at 37° C. (5% CO2) for 1 hour. After 1 hour of compound treatment, stimulate cells with 6× anti-IgE. Mix wells with the cells and allow plates to incubate at 37° C. (5% CO2) for one hour. After 1 hour incubation, pellet cells (10 minutes, 1000 RPM) and collect 200 ul per well of the supernatant, being careful not to disturb pellet. Place the supernatant plate on ice. During the 7-hour step (see next) perform tryptase assay on supernatant that had been diluted 1:500. Resuspend cell pellet in 240 ul of CM media containing 0.5% DMSO and corresponding concentration of compound. Incubate CHMC cells for 7 hours at 37° C. (5% CO2). After incubation, pellet cells (1000 RPM, 10 minutes) and collect 225 ul per well and place in −80° C. until ready to perform ELISAS. ELISAS are performed on appropriately diluted samples (determined empirically for each donor cell population so that the sample measurement falls within the standard curve) following the supplier's instructions.

[9] = system: basophil cells (human peripheral blood); assay: Basophil dustmite activation: histamine release assay; type: cell-based; conditions: basophils, dust mite activation
Procedure: as §1

[10] = system: basophil cells (human peripheral blood); assay: Basophil ionomycin activation: histamine release assay; type: cell-based; conditions: basophils, ionomycin activation, histamine release; read-out: Basophils Ionomycin Histamine IC50
Method in brief: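 Dextran-sedimented leukocytes from peripheral blood of dust-mite-allergic human donors were incubated with compound (8 concentrations, 0.5% DMSO, triplicate) and then stimulated with 2 μM ionomycin stock (20 μl added) for 30 min at 37° C. Histamine released into the supernatant was measured by ELISA.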

[11] = system: cultured human mast cells (CHMC); assay: CHMC high cell density IgE activation: TNFalpha; type: cell-based; conditions: read-out: CHMC high density TNF-alpha
Method in brief: as §2

[12] = system: cultured human mast cells (CHMC); assay: CHMC high cell density IgE activation: LTC4; type: cell-based
Method in brief: as §2

[13] = molecular target: T1, Syk kinase (Homo sapiens, UniProt P43405); assay: Syk kinase biochemical fluorescence polarization assay; conditions: isolated Syk kinase, fluorescence polarization, 4 uM ATP
T1 construct: purchased Upstate, Lake Placid NY

[14] = system: B-cell line BJAB; assay: BJAB toxicity, Cell Titer Glo assay; type: cell-based
Procedure: (§3) Seed 50 μl cells (1×10^6/ml) into each well containing 50 μl compound. The final vehicle concentration is 0.5% DMSO, 1.5% MeOH. Shake plates for 1 minute to mix cells and compound. Incubate plates at 37° C. (5% CO2) for 18 hours. Next day, harvest 50 μl cells from each well, add to 50 μl Cell Titer Glo reagent ([…]). Shake plates for 1 minute. Read on luminometer.

[15] = system: Jurkat cells; assay: Jurkat toxicity, Cell Titer Glo assay; type: cell-based, human
Procedure: as §3, with “The final vehicle concentration is 0.5% DMSO, 1.5% MeOH.” left out, “(5% CO2) for 18 hours.” left out

[16] = system: Syk kinase; assay: Phosphorylation of proteins in the FcεRI cascade in activated CHMC cells; type: cell-based, human; conditions: activated CHMC cells (FIG. 10)
Procedure: Following electrophoresis, the phosphorylation of the proteins indicated in FIGS. 7, 10 and 11A-D were assessed by immunoblot. Antibodies were purchased from Cell Signaling Technology, Beverley, Mass.

[17] = Low Density CHMC, ionomycin activation, tryptase release, read-out: CHMC Ionomycin Tryptase IC50

| pIC50 [1] | pIC50 [2] | pIC50 [3] | pIC50 [5] | pIC50 [6] | pIC50 ([7]; Low Density CHMC, anti-IgE activation, tryptase release, read-out: CHMC anti-IgE Tryptase IC50) | pIC50 [8] | pIC50 [10] | pIC50 [11] | pIC50 [12] | pIC50 ([4]; Low Density, read-out: CHMC Ionomycin Tryptase) | pIC50 [13] | pIC50 ([7]; Low Density, read-out: CHMC anti-IgE Tryptase) | Compound | pIC50 [4, 17] | pIC50 [9] | pIC50 [14] | pIC50 [15] | phosphorylation of proteins downstream of LYN kinase but not Syk kinase [16] |
| --- | --- | --- | --- | --- | --- | --- | --- | --- | --- | --- | --- | --- | --- | --- | --- | --- | --- | --- |
| 6.57 | 5.88 | 5.96 | 5.49 | 5.91 | 6.86 | < 5.00 | < 5.00 | 5.73 | – | – | – | – | O=C(NCCO)c1cc2cc(Nc3ncc(F)c(Nc4cccc(O)c4)n3)ccc2o1 [Compound R926497] | < 5.00 | 6.69 | – | – | – |
| – | 6.23 | 6.24 | 5.66 | 6.19 | – | 5.75 | – | 5.65 | 6.93 | < 5.00 | 6.82 | 6.88 | Cc1cc(Nc2ncc(F)c(Nc3cccc(O)c3)n2)cc(Cl)c1O [Compound R940233] | – | – | < 5.36 | < 5.36 | – |
| – | – | – | – | – | – | – | – | – | – | – | – | – | CC(C)(C)n1nc(-c2ccc(Cl)cc2)c2c(N)ncnc21 [PP2, reference compound] | – | – | – | – | inhibition of phosphorylation of proteins downstream of LYN kinase but not Syk kinase |

| Compound | pIC50 [1] | pIC50 [2] | pIC50 [3] | pIC50 [5] | pIC50 [6] | pIC50 ([7]; Low Density CHMC, anti-IgE activation, tryptase release, read-out: CHMC anti-IgE Tryptase IC50) | pIC50 [8] | pIC50 [10] | pIC50 [11] | pIC50 [12] | pIC50 ([4]; Low Density, read-out: CHMC Ionomycin Tryptase) | pIC50 [13] | pIC50 ([7]; Low Density, read-out: CHMC anti-IgE Tryptase) | pIC50 [4, 17] | pIC50 [9] | pIC50 [14] | pIC50 [15] | phosphorylation of proteins downstream of LYN kinase but not Syk kinase [16] |
| --- | --- | --- | --- | --- | --- | --- | --- | --- | --- | --- | --- | --- | --- | --- | --- | --- | --- | --- |
| Fc1cnc(Nc2cccc(OCCN3CCOCC3)c2)nc1Nc1ccc2c(c1)OCCO2 [Compound R926511] | – | – | – | – | – | – | < 5.70 | – | – | – | – | – | – | < 5.00 | – | < 5.36 | < 5.36 | – |

Source: patent US8158621B2, “Methods of treating or preventing autoimmune diseases with 2,4-pyrimidinediamine compounds” (Rigel Pharmaceuticals, Inc., priority 2002, dated 2012)
